{"source": "patent US20040055092A1", "about": "“Use of percarbamic acids and diacyl percarbamates and precursors therefor” (priority 2000, published 2004)", "key": {"[1]": {"assay": "Bleaching of dye solutions (degree of dye removal)", "details": "activator 2 g/l", "description": "The bleaching solution was prepared as follows: […] Bleach activator 2 g/l […] Total volume 25 ml pH 3 was obtained with acetic acid; pH 7 was obtained with sodium dihydrogen phosphate (0.1M) and sodium hydroxide (0.1M); pH 10 was obtained using sodium carbonate. […] The degree of dye removal or bleaching (R %) was calculated using the following equation: % R=1-(A2/A1)×100 […]"}, "E. Coli": {"test_system": "E. Coli", "assay": "E. Coli cultures exposed 45 minutes at 37° C., plate counts", "format": "cell-based", "details": "peroxide 5 g/l and/or ASP 1 3 g/l; for Counts recorded: 45 minutes at 37° C., controls 40×10^8 (time zero), 37×10^8 (45 minutes), average of three; for reduction in bacteria count / kill: 45 minutes treatment at 37° C.", "description": "Cultures of E. Coli in Ringer's saline were exposed to various conditions for 45 minutes at 37° C. These were then serially diluted (eight 10-fold dilutions) and plated onto nutrient agar (treatments were done in triplicate to ensure reproducibility), and five tests were done overall as shown below. Initial E. Coli concentration was approximately 5×10^9/ml and cultures were grown in nutrient broth overnight before being centrifuged and then re-suspended in saline. A E. Coli control-time zero. B E. Coli control-time 45 minutes C E. Coli plus peroxide at 5 g/l for 45 minutes D E. Coli plus […] at 3 g/l for 45 minutes E E. Coli plus peroxide of 5 g/l plus […] (3 g/l) for 45 minutes Plates were observed and counted after 2 days incubation at 37° C."}}, "data": [{"smiles": "OO", "note": "[H2O2, Hydrogen peroxide]", "values": [{"measurement": "degree of dye removal % R", "setting": "[1]; pH 3, 20° C., 3 hours", "value": 3.3, "unit": "%"}, {"measurement": "degree of dye removal % R", "setting": "[1]; pH 3, 20° C., 24 hours", "value": 85, "unit": "%"}, {"measurement": "degree of dye removal % R", "setting": "[1]; pH 7, 20 C., 3 hours", "value": 2.7, "unit": "%"}, {"measurement": "degree of dye removal % R", "setting": "[1]; pH 7, 20 C., 24 hours", "value": 7.1, "unit": "%"}, {"measurement": "degree of dye removal % R", "setting": "[1]; pH 10, 20°C., 3 hours", "value": 11.3, "unit": "%"}, {"measurement": "degree of dye removal % R", "setting": "[1]; pH 10, 20°C., 24 hours", "value": 24.8, "unit": "%"}, {"measurement": "Counts recorded", "setting": "E. Coli", "value": "12.9×10^8 colony forming units ml^−1"}, {"measurement": "reduction in bacteria count / kill", "setting": "E. Coli", "value": "~66", "unit": "%"}]}, {"smiles": "NC(=O)S(=O)(=O)O", "note": "[ASP 1]", "values": [{"measurement": "Counts recorded", "setting": "E. Coli", "value": "7.9×10^8 colony forming units ml^−1"}, {"measurement": "reduction in bacteria count / kill", "setting": "E. Coli", "value": "about 80%"}]}]}
